# Experiments:
# [1] = target: MASP-2 (CCP1-CCP2-SP) (Homo sapiens (Human), UniProt O00187); test: Enzymatic Assay for MASP-2 (fluorogenic substrate); type: biochemical
# [2] = test system: Lectin Pathway; test: Lectin Pathway Activation Assay in Human Serum (mannan-coated ELISA, C3c detection); type: biochemical; settings: 1% human serum
# Method: Microtiter ELISA plate was coated with mannan from Saccharomyces cerevisiae (Sigma-Aldrich, M7504) for overnight at 4° C. in coating buffer [15 mM Na2CO3, 35 mM NaHCO3].
# [3] = target: MASP-2 CCP2-SP (Homo sapiens (Human), UniProt O00187); test: MASP-2 co-crystallization, X-ray crystallography and structure analysis (H-bonds, van der Waals contacts); set-up: van der Waals contact distance, MASP-2 HIS 483 atom CD2 / van der Waals contact distance, MASP-2 HIS 483 atom NE2 / van der Waals contact distance, SER 654 C to compound atom / van der Waals contact distance, SER 654 O to compound atom / van der Waals contact distance, TRP 655 C to compound atom / van der Waals contact distance, MASP-2 GLY 528 atom CA / van der Waals contact distance TRP 655 atom CZ3 / van der Waals contact distance TRP 655 atom N / van der Waals contact distance TRP 655 atom CE3 / van der Waals contact distance GLY 656 atom C / van der Waals contact distance GLY 656 atom CA / van der Waals contact distance GLY 656 atom O / van der Waals contact distance, MASP-2 TYR 607 atom CD1 / van der Waals contact distance, MASP-2 PRO 606 atom O / d(C3,CA1) / d(CA1,N1)2 / d(H4,O1) / d(H4,O2) / d(O1,O2) / d(CA1,O2) / d(CA6,O1) / d(CA6,O2) / d(CA1,C5) / d(O2,H3) / d(N2,C2) / d(CA5,N2) / d(N2,C4) / d(N2,C6) / d(N2,CA3) / d(N2,O3) / d(O4,H2): unit not given beside the values; settings: for H-bond distance to MASP-2 ASP 627 atom OD2: ASP 627 OD2; for H-bond distance to MASP-2 GLY 656 atom N: GLY 656 N; for H-bond distance to MASP-2 GLY 656 atom O: GLY 656 O; for H-bond distance to MASP-2 SER 654 atom O: SER 654 O; for van der Waals contact distance, MASP-2 PHE 529 atom CE1: Table A2-3; for Ligand-pharmacophore element distance, pharmacophore element C2 / Ligand-pharmacophore element distance, pharmacophore element C3 / Ligand-pharmacophore element distance, pharmacophore element C4 / Ligand-pharmacophore element distance, pharmacophore element C5 / Ligand-pharmacophore element distance, pharmacophore element C6 / Ligand-pharmacophore element distance, pharmacophore element C7 / Ligand-pharmacophore element distance, pharmacophore element CA1 / Ligand-pharmacophore element distance, pharmacophore element CA2 / Ligand-pharmacophore element distance, pharmacophore element CA3 / Ligand-pharmacophore element distance, pharmacophore element CA4 / Ligand-pharmacophore element distance, pharmacophore element CA5 / Ligand-pharmacophore element distance, pharmacophore element CA6: Table A4-1;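 for Ligand-pharmacophore element distance, pharmacophore element C2: distance from averaged pharmacophore element to bound ligand; missing value means element absent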;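 for Ligand-pharmacophore element distance, pharmacophore element C3: distance from averaged pharmacophore element to bound ligand; missing value means element absent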;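 for Ligand-pharmacophore element distance, pharmacophore element C4: distance from averaged pharmacophore element to bound ligand; missing value means element absent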;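 for Ligand-pharmacophore element distance, pharmacophore element C5: distance from averaged pharmacophore element to bound ligand; missing value means element absent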
# MASP-2 CCP2-SP, sequence (O00187 445-686): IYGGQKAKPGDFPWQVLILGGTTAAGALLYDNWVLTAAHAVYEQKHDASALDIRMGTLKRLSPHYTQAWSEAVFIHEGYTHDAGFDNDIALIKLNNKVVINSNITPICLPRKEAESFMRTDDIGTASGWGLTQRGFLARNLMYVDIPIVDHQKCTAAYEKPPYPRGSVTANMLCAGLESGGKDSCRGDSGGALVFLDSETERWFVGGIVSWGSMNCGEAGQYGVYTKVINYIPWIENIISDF
# MASP-2 CCP2-SP, sequence (O00187 364-432 partner): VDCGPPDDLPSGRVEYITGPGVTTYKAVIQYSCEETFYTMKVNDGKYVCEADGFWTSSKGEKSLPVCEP
# Procedure, shortened: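 Inhibitor complexes were obtained by soaking crystals of E. coli-derived human MASP-2 CCP2-SP. Synchrotron diffraction at 1.0 wavelength, molecular replacement and partial refinement gave the models; one pose per ligand was chosen for contact analysis.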
# [4] = target: human α-thrombin (Homo sapiens (Human), UniProt P00734); test: Enzymatic Assay for Thrombin (Boc-VPR-AMC); type: biochemical
# [5] = Table A2-9, ARG 630, AA atoms CG, CZ
# [6] = Table A5-1 pharmacophore: distance between elements, S2/S1 region
# [7] = Table A5-2 pharmacophore distance, S3/S4 region
# [8] = Table A7-1, between pharmacophore elements of the bound compound
# [9] = Table A7-2, between pharmacophore elements of the bound compound
# [10] = Table A8-6, nearest protein atom in cell to the left
# MASP-2 (CCP1-CCP2-SP), sequence (O00187 445-686): as the sequence (O00187 445-686) above
smiles,measurement,setting,value
C[C@H](NC(=O)[C@H]1C[C@H](c2ccccc2)CN1)C(=O)NCc1ccc2c(N)nccc2c1 [compound 1090],Ki,[1],< 500 nM
same,IC50,[2],500 to 5000 nM
same,H-bond distance to MASP-2 ASP 627 atom OD2,[3]; Table A1 (H-Bonds),2.8
same,H-bond distance to MASP-2 GLY 656 atom N,[3]; Table A1 (H-Bonds),3.3
same,H-bond distance to MASP-2 GLY 656 atom O,[3]; Table A1 (H-Bonds),2.78
same,H-bond distance to MASP-2 SER 654 atom O,[3]; Table A1 (H-Bonds),2.96
same,H-bond distance to MASP-2 SER 657 atom OG,"[3]; Table A1 (H-Bonds), SER 657 OG",2.73
same,"van der Waals contact distance, MASP-2 HIS 483 atom CD2",[3]; Table A2-1,3.74
same,"van der Waals contact distance, MASP-2 PHE 529 atom CE1",[3],3.87
same,"van der Waals contact distance, MASP-2 amino acid atom to compound atom",[3]; Table A2-7 continued: CYS 629 (CA),3.89
same,"van der Waals contact distance, MASP-2 amino acid atom to compound atom","[3]; Table A2-8, CYS 629 / ARG 630, AA atoms CB, N, C, O, CA, CB, CD",3.9
same,"van der Waals contact distance, MASP-2 amino acid atom to compound atom",[3]; [5],3.64
same,"van der Waals contact distance, MASP-2 amino acid atom to compound atom","[3]; Table A2-9 second part, ARG 630, AA atoms N, NE, NH1",3.85
same,van der Waals contact distance SER 657 atom C,"[3]; Table A2-14, MASP-2 SER 657 C, columns c12-c13 (inferred)",3.7
same,"Ligand-pharmacophore element distance, pharmacophore element C2",[3],0
same,"Ligand-pharmacophore element distance, pharmacophore element C3",[3],0
same,"Ligand-pharmacophore element distance, pharmacophore element C4",[3],0
same,"Ligand-pharmacophore element distance, pharmacophore element C5",[3],0
same,"Ligand-pharmacophore element distance, pharmacophore element C6",[3],0
same,"Ligand-pharmacophore element distance, pharmacophore element C7",[3],0
same,"Ligand-pharmacophore element distance, pharmacophore element CA1",[3],0.98
same,"Ligand-pharmacophore element distance, pharmacophore element CA2",[3],0
same,"Ligand-pharmacophore element distance, pharmacophore element CA3",[3],0
same,"Ligand-pharmacophore element distance, pharmacophore element CA4",[3],0
same,"Ligand-pharmacophore element distance, pharmacophore element CA5",[3],0.91
same,"Ligand-pharmacophore element distance, pharmacophore element CA6",[3],0
same,"d(CA1,O1)",[3]; [6],5.59
same,"d(CA1,O2)",[3]; [6],5.11
same,"d(H4,O1)",[3]; [6],3.15
same,"d(H4,O2)",[3]; [6],3.68
same,"d(O1,O2)",[3]; [6],3.38
same,"d(CA5,N2)",[3]; [7],5.09
same,"d(N2,C4)4",[3]; [7],7.94
same,"d(O2,H3)",[3]; [7],5.87
same,"d(O2,N2)",[3]; [7],2.72
same,"a(CA1, O1, O2)",[3]; Table A6-1 pharmacophore angle,100.34
same,"a(O1, O2, H4)",[3]; Table A6-1 pharmacophore angle,121.29
same,"a(O1, O2, H3)",[3]; Table A6-2 pharmacophore angle,152.05
same,"a(O1, O2, N2)",[3]; Table A6-2 pharmacophore angle,140.84
same,"Pharmacophore torsion angle a(H4, O1, O2, H3)",[3]; [8],91.31
same,"Pharmacophore torsion angle a(H4, O1, O2, N2)",[3]; [8],−177.46
same,"Pharmacophore torsion angle a(O1, H4, O2, CA1)",[3]; [8],−92.71
same,"Pharmacophore torsion angle a(O1, O2, N2, CA5)",[3]; [9],134.91
same,Pharmacophore protein distance to MET_658 (first MET_658 column),"[3]; Table A8-6, 6th residue column, nearest protein atom in cell to the left",2.69
same,Pharmacophore protein distance to MET_658 (second MET_658 column),"[3]; Table A8-6, 9th residue column, nearest protein atom in cell to the left",2.71
same,Pharmacophore protein distance to GLY_528,[3]; [10],3.61
same,Pharmacophore protein distance to PHE_529,[3]; [10],2.77
same,Pharmacophore protein distance to PRO_608,[3]; [10],3.95
same,Pharmacophore protein distance to SER_611,[3]; [10],2.87
same,Pharmacophore protein distance to TRP_655,"[3]; Table A8-6, pharmacophore elements C6, CA3, O3, H1, nearest protein atom in cell to the left",3.50
"Cc1ccc(-c2c[nH]c(C(=O)N[C@@H](C)C(=O)NCc3ccc(C(=N)N)cc3)c2)cc1F [compound 1235, (S)—N-(1-((4-Carbamimidoylbenzyl)amino)-1-oxopropan-2-yl)-4-(3-fluoro-4-methylphenyl)-1H-pyrrole-2-carboxamide]",Ki,[4],10000 to 25000 nM
"Cc1nc(N)ccc1CNC(=O)[C@H](C)NC(=O)[C@H]1C[C@H](Cc2ccc(-c3ccccc3)cc2)CN1 [compound 1351, (2R,4S)-4-([1,1′-Biphenyl]-4-ylmethyl)-N—((S)-1-(((6-amino-2-methylpyridin-3-yl)methyl)amino)-1-oxopropan-2-yl)pyrrolidine-2-carboxamide]",IC50,[2],< 50 nM
same,H-bond distance to MASP-2 ASP 627 atom OD2,[3]; Table A1 (H-Bonds),3.22
same,H-bond distance to MASP-2 GLY 656 atom N,[3]; Table A1 (H-Bonds),3.25
same,H-bond distance to MASP-2 GLY 656 atom O,[3]; Table A1 (H-Bonds),2.76
same,H-bond distance to MASP-2 SER 654 atom O,[3]; Table A1 (H-Bonds),2.98
same,H-bond distance to MASP-2 SER 657 atom O,"[3]; Table A1 (H-Bonds), SER 657 O",2.8
same,"van der Waals contact distance, MASP-2 HIS 483 atom CD2",[3]; Table A2-1,3.66
same,"van der Waals contact distance, MASP-2 HIS 483 atom NE2",[3]; Table A2-1,3.9
same,"van der Waals contact distance, MASP-2 ALA 527 atom CA",[3]; Table A2-2,3.71
same,"van der Waals contact distance, MASP-2 PHE 529 atom CE1",[3],3.8
same,"van der Waals contact distance, MASP-2 amino acid atom to compound atom",[3]; [5],3.81
same,"van der Waals contact distance, VAL 653 CG1 to compound atom",[3]; Table A2-11,3.3
same,"van der Waals contact distance, TRP 655 CA to compound atom",[3]; Table A2-12,3.34
same,"Ligand-pharmacophore element distance, pharmacophore element C2",[3],0
same,"Ligand-pharmacophore element distance, pharmacophore element C3",[3],0.12
same,"Ligand-pharmacophore element distance, pharmacophore element C4",[3],0
same,"Ligand-pharmacophore element distance, pharmacophore element C5",[3],0
same,"Ligand-pharmacophore element distance, pharmacophore element C6",[3],0
same,"Ligand-pharmacophore element distance, pharmacophore element C7",[3],0
same,"Ligand-pharmacophore element distance, pharmacophore element CA1",[3],0.57
same,"Ligand-pharmacophore element distance, pharmacophore element CA2",[3],0.8
same,"Ligand-pharmacophore element distance, pharmacophore element CA3",[3],0
same,"Ligand-pharmacophore element distance, pharmacophore element CA4",[3],3.3
same,"Ligand-pharmacophore element distance, pharmacophore element CA5",[3],0
same,"Ligand-pharmacophore element distance, pharmacophore element CA6",[3],0
same,"d(C3,CA1)",[3]; [6],2.85
same,"d(CA1,N1)2",[3]; [6],1.38
same,"d(CA1,O1)",[3]; [6],4.47
same,"d(CA1,O2)",[3]; [6],3.79
same,"d(H4,O1)",[3]; [6],4.47
same,"d(H4,O2)",[3]; [6],3.70
same,"d(O1,O2)",[3]; [6],3.38
same,"d(N2,CA2)",[3]; [7],6.12
same,"d(O2,H3)",[3]; [7],4.26
same,"d(O2,N2)",[3]; [7],2.76
same,"a(C3, CA1, O1)",[3]; Table A6-1 pharmacophore angle,149.86
same,"a(CA1, O1, O2)",[3]; Table A6-1 pharmacophore angle,103.11
same,"a(O1, O2, H4)",[3]; Table A6-1 pharmacophore angle,132.32
same,"a(N1, CA1, O1) b)","[3]; Table A6-1 pharmacophore angle, Methyl-amino-pyridine compounds",173.60
same,"a(O1, O2, H3)",[3]; Table A6-2 pharmacophore angle,148.60
same,"a(O1, O2, N2)",[3]; Table A6-2 pharmacophore angle,141.59
same,"a(O2, N2, CA2)",[3]; Table A6-2 pharmacophore angle,158.04
same,"Pharmacophore torsion angle a(C3, CA1, O1, H4)",[3]; [8],26.55
same,"Pharmacophore torsion angle a(H4, O1, O2, H3)",[3]; [8],51.88
same,"Pharmacophore torsion angle a(H4, O1, O2, N2)",[3]; [8],138.69
same,"Pharmacophore torsion angle a(N1, CA1, O1, H4)",[3]; [8],−0.13
same,"Pharmacophore torsion angle a(O1, H4, O2, CA1)",[3]; [8],−83.97
same,"Pharmacophore torsion angle a(O1, O2, N2, CA2)",[3]; [9],121.52
same,"Pharmacophore torsion angle a(O1, O2, N2, CA4)",[3]; [9],119.61

# — patent publication US12195427B2, “MASP-2 inhibitors and methods of use” (priority 2018, dated 2025)
